Source: PMC9318819 (Viruses, 2022)
Read-outs that look alike come from different tables or passages of the source.

Columns and labels:
[1] = test system: CXCR4-tropic HIV isolate NL4-3; experiment: deCIPhR in vitro anti-HIV replication assay (β-galactosidase, LTR-driven LacZ); assay type: cell-based
[2] = test system: Jurkat cells; experiment: T cell activation, CD69 expression by flow cytometry; assay type: cell-based; details: 24 h
[3] = test system: J-Lat 10.6 cells; experiment: Effect of PKC inhibitors Gö 6983 and enzastaurin on LRA-induced latency reversal; assay type: cell-based; details: 1 μM Gö 6983
[4] = test system: HIV-1 (PBL286 (02ET_14), subtype C, Ethiopian isolate); experiment: Anti-HIV screening in PBMC (Southern Research Institute); assay type: cell-based; details: for EC50: read-out: Antiviral Activity EC50; for EC90: read-out: Antiviral Activity EC90; for inhibition at 0.08 µg/mL: read-out: inhibition of HIV replication in PBMC
[5] = in vitro; details: human
[6] = test system: HIV-1 in primary CD4+ T cells from cART-suppressed donors; experiment: Ex vivo latency reversal, supernatant viral RNA by qRT-PCR; assay type: cell-based; details: 24 h, 3 donors
[7] = test system: HIV provirus expression in J-Lat 10.6 T cells; experiment: In vitro HIV latency reversal, GFP expression by flow cytometry; assay type: cell-based; details: 24 h
[8] = Primary cell viability by trypan blue counting; assay type: cell-based; details: human, 3 donors, read-out: viability of primary CD4+ T cells
[9] = Cell viability by resazurin dye; assay type: cell-based; details: human, Jurkat T cells (Clone E6-1), parental, lacking HIV provirus, read-out: viability relative to 0.1% DMSO
[10] = PBMC viability / cytotoxicity (MTS dye); details: human
[11] = test system: HeLa-SXR5 cell line; experiment: Cytotoxicity under deCIPhR cell culture conditions (Alamar Blue, four days); details: four days of incubation, any concentration (0.08 to 5 μg/mL)
[12] = Human immunodeficiency virus 1, PBMC, subtype C virus
[13] = Human immunodeficiency virus 1, PBMC

Which inhibition at 0.43 µM ([1]; Human immunodeficiency virus 1, NL43, 430 nM) does the source give for `O=C1Nc2ccc(Cl)cc2[C@@](C#CC2CC2)(C(F)(F)F)O1` [efavirenz] here?
The inhibition at 0.43 µM was 43.9 ± 41.9%.

What about the inhibition at 0.93 µM ([1]; Human immunodeficiency virus 1, NL43, 930 nM) of the same compound?
Its inhibition at 0.93 µM is 111 ± 22.1%.

And the inhibition at 2 µM ([1]; Human immunodeficiency virus 1, NL43, 2000 nM)?
The inhibition at 2 µM was 107 ± 24.1%.

And the inhibition at 4.3 µM ([1]; Human immunodeficiency virus 1, NL43, 4300 nM)?
The inhibition at 4.3 µM was 100%.

Which CD69-positive cells ([2]; 0.1 μM) does the source give for `Cc1[nH]c2ccccc2c1CCNCc1ccc(/C=C/C(=O)NO)cc1` [Panobinostat, reference compound] here?
The CD69-positive cells was 1.5 ± 1.3%.

What about the “effect of Gö 6983 on latency reversal” value ([3]; LRA at 0.1 μM) of the same compound?
The value was “unaffected”.

Which results are given for `Cc1cn([C@H]2C[C@H](N=[N+]=[N-])[C@@H](CO)O2)c(=O)[nH]c1=O` [AZT, azidothymidine, reference compound]?
EC50 [4, 12]: 7 nM; EC90 [4, 12]: 50 nM; Selectivity Index CC50/IC50 ([4]; PBMC): >142; CC50 [5]: > 1000 nM

With `C=C(C)C12OC3(/C=C/C=C/CCCCC)OC1C1C4OC4(CO)C(O)C4(O)C(=O)C(C)=CC4C1(O3)C(C)C2OC(=O)c1ccccc1` (stereo not shown) [Compound 2, yuanhuacine] as the compound, how does the inhibition at 0.08 µg/mL [4, 13] read?
The inhibition at 0.08 µg/mL was over 80%.

And the “average fold increase in viral RNA” value ([6]; 1.5 μM)?
Its value is 9.1 fold.

And the “average supernatant viral RNA” value ([6]; 1.5 μM)?
The value was 297 ± 267 copies/mL.

And the “GFP expression (latency reversal), % of live-gated cells” value ([7]; 0.15 μM)?
Its value is 58.2 ± 4.7%.

What about the viability at 24 h, 1.5 µM [8] of the same compound?
Its viability at 24 h, 1.5 µM is 79.6 ± 41.5%.

What about the CD69-positive cells ([2]; 0.5 μM) of the same compound?
Its CD69-positive cells is 74.5 ± 1.3%.

And the viability at 24 h, 1.5 µM [9]?
Its viability at 24 h, 1.5 µM is 58.5 ± 15.9%.

What does the source list for `C=C(C)C12OC3(/C=C/C=C/CCC)OC1C1C4OC4(CO)C(O)C4(O)C(=O)C(C)=CC4C1(O3)C(C)C2OC(=O)c1ccccc1` (stereo not shown) [Compound 1, yuanhuacine A]?
CC50 [10]: > 15000 nM; EC50 [4, 13]: 30 nM; EC90 [4, 13]: 90 nM; inhibition at 0.08 µg/mL [4, 13]: > 80%; Selectivity Index CC50/IC50 ([4]; PBMC): >500; average fold increase in viral RNA ([6]; 1.5 μM): 10.8 fold; average supernatant viral RNA ([6]; 1.5 μM): 352.5 ± 430.4 copies/mL; GFP expression (latency reversal), % of live-gated cells ([7]; 0.15 μM): 65.5 ± 6.3%; inhibition of HIV replication across all test concentrations ([1]; test concentrations 0.08 to 5 μg/mL): 65–80%; viability at 24 h, 1.5 µM [8]: 96.4 ± 32.2%; CD69-positive cells ([2]; 0.5 μM): 75.4 ± 2.2%; viability at 24 h, 1.5 µM [9]: 51.2 ± 11.2%; cytotoxicity (Alamar Blue) [11]: no evidence of cytotoxicity at any concentration

With `CC(=O)O[C@@]12C[C@@H](C)[C@@]3(O)[C@@H](C=C(CO)C[C@]4(O)C(=O)C(C)=C[C@@H]34)[C@@H]1C2(C)C` [prostratin, reference compound] as the compound, how does the “average fold increase in viral RNA” value ([6]; 10 μM) read?
Its value is 23.2 fold.

What about the “average supernatant viral RNA” value ([6]; 10 μM) of the same compound?
The value was 755.5 ± 1144.2 copies/mL.

And the “GFP expression (latency reversal), % of live-gated cells” value ([7]; 2.5 μM)?
Its value is 66.0 ± 5.7%.

What about the viability at 24 h, 10 µM ([8]; 10 μM) of the same compound?
Its viability at 24 h, 10 µM is 65.9 ± 12.4%.

And the CD69-positive cells ([2]; 2.5 μM)?
The CD69-positive cells was 73.2 ± 1.3%.

What about the “reduction in latency reversal by pan-PKC inhibitor Gö 6983” value ([3]; LRA at 2.5 μM) of the same compound?
Its value is 74.7 ± 17.3%.

And the viability at 24 h, 0.5 µM ([9]; 0.5 μM)?
Its viability at 24 h, 0.5 µM is 56 ± 10%.
